Results from patent US12492410B2, “Engineered cytolytic immunecell” (Autolus Limited, priority 2018, dated 2025).

Experiments:
[1] = system: minocycline dAb (SEQ ID NO: 8); test: Phage-peptide screening for minocycline-displaceable binding to minocycline dAb; settings: for displaceable specificity for minocycline dAb: minocycline dAb-Fc immobilised on beads, with and without 1 μM minocycline, control antibody SEQ ID NO: 13; for affinity of peptide for minocycline dAb: stated in words
Protocol: FIG. 4—Graphs showing minocycline displaceable binding of peptides SEQ ID NO: 34, SEQ ID NO: 35, SEQ ID NO: 36 and SEQ ID NO: 37 to minocycline dAb (SEQ ID NO: 8) versus control antibody (SEQ ID NO: 13).
A minocycline dAb-Fc was immobilised on beads. The minocycline dAb was encoded by SEQ ID NO: 8. Phage-peptide colony screening was performed with and without 1 μM minocycline.
An antibody comprising SEQ ID NO: 13 was used as a control antibody (the control antibody comprises different CDRs to SEQ ID NO: 8).

[2] = system: HEK293T cells; test: Minocycline induced secretion of ER retained IL12, IL12 ELISA of supernatant; type: cell-based; settings: IL12 fused to the peptide, in the presence of KDEL anchored minocycline dAb; minocycline 0 μM; all time points (2 and 4 hours)
Protocol: FIGS. 5A, 5B and 5C—Minocycline induced secretion of ER retained IL12 HEK293T cells were transiently transfected with constructs expressing the intracellular KDEL tagged anti-minocycline dAb and dAb-specific peptide (GWARA or PWAYS) tagged IL-12 (A). Transfection efficiency determined by staining for HA marker expression with transfection efficiency ranging from 50-70% (B). […] Supernatant was collected 2 and 4 hours post minocycline addition and IL12 ELISA readout carried out (C).
The KDEL amino acid sequence was used to retain proteins within the ER/Golgi apparatus. The minocycline specific dAb was tagged with the KDEL sequence (SEQ ID NO: 29) thus anchoring it within with the ER/Golgi and a molecule of interest (IL12) is in turn tagged with the peptide with affinity to the dAb causing its retention. Upon addition of minocycline, the dAb-peptide complex dissociates enabling secretion of the peptide-tagged molecule.
HEK293T cells were seeded at […] in 96-well plates to achieve confluency of 50-60% for next day transfection. A transfection master mix was made by adding 30 μL of GeneJuice transfection reagent to 470 μL plain IMDM and incubating for 5 minutes. For each well, 0.13 μg of plasmid DNA was then added to 5.2 uL of the IMDM-Genejuice master mix and incubated for 15 minutes. Transfection mix containing the GeneJuice-DNA complex was then added to the cells. […]

minocycline dAb (SEQ ID NO: 8), sequence (as listed by the source): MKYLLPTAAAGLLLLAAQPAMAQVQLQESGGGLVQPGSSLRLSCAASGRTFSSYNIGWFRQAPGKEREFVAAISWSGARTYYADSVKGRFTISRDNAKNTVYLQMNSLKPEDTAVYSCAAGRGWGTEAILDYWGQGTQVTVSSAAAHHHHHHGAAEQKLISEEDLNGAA

Row | Sequence | displaceable specificity for minocycline dAb [1] | affinity of peptide for minocycline dAb [1] | IL12 secretion [2]
1 | ACPPWAYSFC (minocycline peptide mimic) [SEQ ID NO: 37] | displaceable specificity | low affinity | concentration dependent increase
2 | ACPGWARAFC (minocycline peptide mimic) [SEQ ID NO: 34] | displaceable specificity | high affinity | concentration dependent increase
3 | ACPHWAQAFC (minocycline peptide mimic) [SEQ ID NO: 35] | displaceable specificity |  | 
4 | ACPQWAMMFC (minocycline peptide mimic) [SEQ ID NO: 36] | displaceable specificity |  | 
